Measurements taken from patent publication US20080085889A1, “Amidomethyl-Substituted 1-(Carboxyalkyl) Cyclopentyl-Carbonylamino-Benzazepine-N-Acetic Acid Compounds, Process and Intermediate Products for Their Preparation and Pharmaceutical Compositions Containing Them” (SOLVAY PHARMACEUTICALS GmbH, priority 2003, published 2008).
pIC50: −log10 of the molar value. Where two headings read alike, the source gives them in different places.

Columns and labels:
[1] = target: T1, hSEP (sol hu)(his)6; His6-tagged hSEP ectodomain (Homo sapiens, UniProt Q495T6); experiment: Enzymatic breakdown of CNP and VIP by hSEP and its inhibition, in vitro, HPLC; assay type: biochemical
T1 construct: His6-tagged hSEP ectodomain; His6; purchased Innogenetics, Ghent, Belgium
T1 sequence (Q495T6 49-779 limits assumed): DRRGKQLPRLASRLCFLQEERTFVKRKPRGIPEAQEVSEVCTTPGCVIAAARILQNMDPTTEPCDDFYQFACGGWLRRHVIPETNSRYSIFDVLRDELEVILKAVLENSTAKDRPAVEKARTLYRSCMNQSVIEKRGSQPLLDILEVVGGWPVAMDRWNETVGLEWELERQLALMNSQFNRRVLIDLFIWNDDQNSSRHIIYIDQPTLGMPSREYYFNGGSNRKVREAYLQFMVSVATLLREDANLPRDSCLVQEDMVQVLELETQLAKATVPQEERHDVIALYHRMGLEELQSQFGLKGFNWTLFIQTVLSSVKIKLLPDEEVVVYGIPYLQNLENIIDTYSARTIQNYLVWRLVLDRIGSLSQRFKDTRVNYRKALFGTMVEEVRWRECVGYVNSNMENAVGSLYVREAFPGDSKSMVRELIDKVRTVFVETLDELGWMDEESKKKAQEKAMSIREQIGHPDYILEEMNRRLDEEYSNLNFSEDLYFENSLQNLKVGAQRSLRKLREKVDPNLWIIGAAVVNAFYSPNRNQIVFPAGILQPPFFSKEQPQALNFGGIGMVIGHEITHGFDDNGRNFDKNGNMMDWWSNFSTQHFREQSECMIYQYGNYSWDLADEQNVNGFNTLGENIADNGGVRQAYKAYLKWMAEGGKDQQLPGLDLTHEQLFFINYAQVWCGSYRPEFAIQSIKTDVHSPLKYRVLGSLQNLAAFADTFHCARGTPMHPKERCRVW
Protocol: (§1) The inhibition of the enzymatic breakdown of CNP and VIP by the compounds used according to the invention was measured in an enzymatic in vitro assay according to the following protocol:
(§2) All test compounds were dissolved in DMSO at 10 mM and further diluted with assay buffer.
(§3) 80 μl of assay buffer, 10 μl of enzyme working solution (NEP or hSEP) and 10 μl of peptide stock solution (VIP or CNP) were mixed in an Eppendorf vial and incubated for 120 min. at 37° C. The enzymatic reaction was subsequently terminated by heating to 95° C. for 5 min. After centrifugation (Heraeus Biofuge B, 3 min) the supernatant was subjected to HPLC.
70 μl of assay buffer, 10 μl of enzyme working solution (NEP or hSEP) and 10 μl of a test compound solution were mixed in an Eppendorf vial and preincubated at 37° C. for 15 minutes. Then, 10 μl of peptide stock solution (VIP or CNP) was added and the reaction mixture was incubated at 37° C. for 60 min. to allow enzymatic hydrolysis. The enzymatic reaction was subsequently terminated by heating to 95° C. for 5 min. After centrifugation (Heraeus Biofuge B, 3 min) the supernatant was subjected to HPLC. In order to separate the remaining substrate from the cleavage products, a reversed phase HPLC technique with a CC 125/4 Nucleosil 300/5 C18 RP column and a CC 8/4 Nucleosil 100/5 C18 precolumn (Macherey-Nagel, Düren, Germany) was used. 60 μl of the reaction samples were injected into the HPLC and the column was eluted at a flow rate of 1 ml/min with the following gradient:
(§4) All peptides were detected by absorbance at 214 nm (UV spectroscopy). The percentage (=%) of hydrolysis was calculated on the basis of the peak area of the undegraded peptide for an enzyme containing sample Y in correlation to a sample containing the same concentration of peptide without enzyme (blank) by the following equation: % hydrolysis=100*(blank−Y)
Basis of the calculation of % inhibition is the peak area of the undegraded peptide (VIP or CNP) for an inhibitor containing sample X in comparison to samples containing only peptide (blank) or peptide and enzyme without inhibitor (control) according to the following equation: % inhib=100*(X−control)/(blank−control)
All samples were run in duplicate and mean values were used. A solvent control (0.1% DMSO) was added to each assay run. CNP and VIP were cleaved by NEP and hSEP in vitro.

[2] = test system: NEP (prepared from pig kidney cortex); experiment: Enzymatic breakdown of CNP and VIP by NEP and its inhibition, in vitro, HPLC; assay type: biochemical
Protocol: as §1, §2, §3
70 μl of assay buffer, 10 μl of enzyme working solution (NEP or hSEP) and 10 μl of a test compound solution were mixed in an Eppendorf vial and preincubated at 37° C. for 15 minutes. Then, 10 μl of peptide stock solution (VIP or CNP) was added and the reaction mixture was incubated at 37° C. for 60 min. to allow enzymatic hydrolysis. […]
as §4, with “hydrolysis=100*(blank−Y) […]” for “hydrolysis=100*(blank−Y)”

{(3S)-3-[({1-[(2″rel1″)-2-ethoxycarbonyl)-4-(isopropylamino)-4-oxobutyl]cyclopentyl}-carbonyl)amino]-2-oxo-2,3,4,5-tetrahydro-1H-1-benzazepin-1-yl}acetic acid [Example 4]
pIC50 ([1]; substrate CNP (32-53), read-out: inhibition of breakdown of CNP by hSEP, IC50): 9.00 | pIC50 ([1]; substrate VIP, read-out: inhibition of breakdown of VIP by hSEP, IC50): 8.51 | pIC50 ([2]; substrate CNP (32-53), read-out: inhibition of breakdown of CNP by NEP, IC50): 8.00 | pIC50 ([2]; substrate VIP, read-out: inhibition of breakdown of VIP by NEP, IC50): 8.51
